# Target: T1, ZAP-70 (Homo sapiens, UniProt P43403)
# T1 sequence (P43403 1-619): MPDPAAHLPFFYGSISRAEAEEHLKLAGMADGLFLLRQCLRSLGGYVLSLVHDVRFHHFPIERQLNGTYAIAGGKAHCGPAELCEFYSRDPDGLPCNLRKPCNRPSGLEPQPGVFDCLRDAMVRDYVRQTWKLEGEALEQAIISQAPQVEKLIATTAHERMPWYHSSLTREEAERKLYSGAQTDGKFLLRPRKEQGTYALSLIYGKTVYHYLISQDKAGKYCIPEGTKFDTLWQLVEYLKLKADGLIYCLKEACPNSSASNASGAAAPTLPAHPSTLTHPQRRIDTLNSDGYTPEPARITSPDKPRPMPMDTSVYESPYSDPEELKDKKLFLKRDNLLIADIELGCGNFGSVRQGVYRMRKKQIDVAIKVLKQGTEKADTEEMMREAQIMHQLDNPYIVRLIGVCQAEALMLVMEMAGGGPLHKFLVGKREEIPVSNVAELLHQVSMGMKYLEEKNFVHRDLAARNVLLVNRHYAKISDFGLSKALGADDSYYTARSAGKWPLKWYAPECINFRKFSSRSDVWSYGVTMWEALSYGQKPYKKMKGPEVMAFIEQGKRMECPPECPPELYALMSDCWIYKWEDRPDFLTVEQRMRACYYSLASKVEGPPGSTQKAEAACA
# Test: DELFIA assay (ZAP-70 kinase, phosphorylation of biotinylated poly(glu,tyr))
# Format: biochemical
# Settings: ZAP-70 DELFIA, class symbols; read-out: Activity (IC50 in vitro)
# Procedure: Before initiation of kinase reactions, compounds were pre-incubated with ZAP-70. Pre-incubation reactions contained 62.5 mM Mops pH 7.0, 12.5 mM MgCl2, 12.5% glycerol, 3.1 nM ZAP-70, 62.5 nM biotinylated poly(glu,Tyr), 0.1 mg/ml BSA, 6.25% DMSO and […] compound in a total volume of […]. After a 10 minute room temperature incubation, 10 ml of 5 mM ATP was added to start the reaction. Reactions were incubated at room temperature for 30 minutes then terminated by addition of 5 ml 500 mM EDTA. The amount of phosphate transferred to biotinylated poly(glu,tyr) was measured using the Dissociation Enhanced Lanthanide Fluorescence Immuno-assay (DELFIA) from Perkin Elmer according to manufacturers protocol. Briefly, biotinylated […] was captured on streptavidin coated plates, washed twice, then incubated with Europium labeled-anti-phosphotyrosine antibody. Free antibody was removed with six washes, Europium was dissociated from the antibody, and Europium fluorescence was measured at using an excitation wavelength of 340 nm and an emission wavelength of 615 nm.
row,IC50 [µM],Compound
1,1 to 10,FC(F)(F)c1ccc(CNc2cc(CN3CCC[C@H]3CN3CCCC3)c3cc(-c4ccc5c(c4)OCO5)ccc3n2)cc1 [Compound 94]
2,1 to 10,O=C(c1cc(-c2ccc(F)c(Cl)c2)nc2ccc(-c3ccc(F)c(Cl)c3)cc12)N1CCC[C@H]1CN1CCCC1 [Compound 95]
3,1 to 10,N#Cc1cccc(-c2ccc3nc(-c4cccc(C#N)c4)cc(C(=O)N4CCC[C@H]4CN4CCCC4)c3c2)c1 [Compound 96]
4,1 to 10,O=C(c1cc(-c2ccc(Cl)c(Cl)c2)nc2ccc(-c3ccc(Cl)c(Cl)c3)cc12)N1CCC[C@H]1CN1CCCC1 [Compound 97]
5,< 1,O=C(c1cc(OCc2ccc(C(F)(F)F)cc2)nc2ccc(-c3ccc4c(c3)OCO4)cc12)N1CCC[C@H]1CN1CCCC1 [Compound 98]
6,< 1,O=C(c1cc(OCc2ccc(Cl)cc2)nc2ccc(-c3ccc4c(c3)OCO4)cc12)N1CCC[C@H]1CN1CCCC1 [Compound 99]
7,> 10,Clc1cc(N2CCC[C@H]2CN2CCCC2)c2cc(-c3ccc4c(c3)OCO4)ccc2n1 [Compound 100]
8,1 to 10,Clc1cc(N2CCC[C@H]2CN2CCCC2)nc2ccc(-c3ccc4c(c3)OCO4)cc12 [Compound 101]
9,1 to 10,O=C(Nc1cc(C(=O)N2CCC[C@H]2CN2CCCC2)c2cc(-c3ccc4c(c3)OCO4)ccc2n1)c1ccc(C(F)(F)F)cc1 [Compound 102]
10,1 to 10,FC(F)(F)c1ccc(CNc2cc(N3CCC[C@H]3CN3CCCC3)c3cc(-c4ccc5c(c4)OCO5)ccc3n2)cc1 [Compound 103]
11,1 to 10,FC(F)(F)c1ccc(CNc2cc(N3CCC[C@H]3CN3CCCC3)nc3ccc(-c4ccc5c(c4)OCO5)cc23)cc1 [Compound 104]
12,< 1,O=C(c1cc(NCc2ccc(C(F)(F)F)cc2)nc2ccc(-c3ccc(Cl)c(Cl)c3)cc12)N1CCC[C@H]1CN1CCCC1 [Compound 105]
13,< 1,N#Cc1cccc(-c2ccc3nc(NCc4ccc(C(F)(F)F)cc4)cc(C(=O)N4CCC[C@H]4CN4CCCC4)c3c2)c1 [Compound 106]
14,< 1,N#Cc1ccc(-c2ccc3nc(NCc4ccc(C(F)(F)F)cc4)cc(C(=O)N4CCC[C@H]4CN4CCCC4)c3c2)cc1 [Compound 107]
15,1 to 10,O=C(c1cc(NCc2ccc(C(F)(F)F)cc2)nc2ccc(-c3cc(F)cc(F)c3)cc12)N1CCC[C@H]1CN1CCCC1 [Compound 108]
16,1 to 10,O=C(c1cc(NCc2ccc(C(F)(F)F)cc2)nc2ccc(-c3ccc4c(c3)OCO4)cc12)N1CCCC1CCN1CCCC1 (stereo not drawn) [Compound 109]
17,> 10,O=C(c1cc(NCc2ccc(C(F)(F)F)cc2)nc2ccc(-c3ccc4c(c3)OCO4)cc12)N1CCC(CN2CCCC2)C1 (stereo not drawn) [Compound 110]
18,> 10,O=C(NCc1ccc(C(F)(F)F)cc1)c1cc(NCc2ccc(C(F)(F)F)cc2)nc2ccc(-c3ccc4c(c3)OCO4)cc12 [Compound 111]
19,> 10,O=C(c1cc(Cl)ncc1Cl)N1CCC[C@H]1CN1CCCC1 [Compound 112]
20,> 10,O=C(c1cc(Cl)nc(Cl)c1)N1CCC[C@H]1CN1CCCC1 [Compound 113]
21,> 10,O=C(c1cc(NCc2ccc(C(F)(F)F)cc2)ncc1Cl)N1CCC[C@H]1CN1CCCC1 [Compound 114]
22,> 10,O=C(c1cc(Cl)nc(/C=C/c2ccccc2)c1)N1CCC[C@H]1CN1CCCC1 [Compound 115]

# Continued, molecule first:
row,Compound,IC50 [µM]
1,CN(C)c1cc(C(=O)N2CCC[C@H]2CN2CCCC2)c2cc(-c3ccc4c(c3)OCO4)ccc2n1 [Compound 59],1 to 10
2,CN1CCC(N(C)c2cc(C(=O)N3CCC[C@H]3CN3CCCC3)c3cc(-c4ccc5c(c4)OCO5)ccc3n2)CC1 [Compound 60],< 1
3,CN1CCN(c2cc(C(=O)N3CCC[C@H]3CN3CCCC3)c3cc(-c4ccc5c(c4)OCO5)ccc3n2)CC1 [Compound 61],1 to 10
4,O=C(c1cc(N2CCOCC2)nc2ccc(-c3ccc4c(c3)OCO4)cc12)N1CCC[C@H]1CN1CCCC1 [Compound 62],1 to 10
5,O=C(c1cc(N2CCCC2)nc2ccc(-c3ccc4c(c3)OCO4)cc12)N1CCC[C@H]1CN1CCCC1 [Compound 63],1 to 10
6,O=C(c1cc(N2CCC(N3CCCC3)CC2)nc2ccc(-c3ccc4c(c3)OCO4)cc12)N1CCC[C@H]1CN1CCCC1 [Compound 64],1 to 10
7,O=C(c1cc(N2CCc3ccccc3C2)nc2ccc(-c3ccc4c(c3)OCO4)cc12)N1CCC[C@H]1CN1CCCC1 [Compound 65],< 1
8,CN(CCC#N)c1cc(C(=O)N2CCC[C@H]2CN2CCCC2)c2cc(-c3ccc4c(c3)OCO4)ccc2n1 [Compound 66],1 to 10
9,CN(C)CCN(C)c1cc(C(=O)N2CCC[C@H]2CN2CCCC2)c2cc(-c3ccc4c(c3)OCO4)ccc2n1 [Compound 67],> 10
10,CCN(Cc1ccccc1)c1cc(C(=O)N2CCC[C@H]2CN2CCCC2)c2cc(-c3ccc4c(c3)OCO4)ccc2n1 [Compound 68],< 1
11,CC(=O)N[C@H]1CCN(c2cc(C(=O)N3CCC[C@H]3CN3CCCC3)c3cc(-c4ccc5c(c4)OCO5)ccc3n2)C1 [Compound 69],> 10
12,CN(c1cc(C(=O)N2CCC[C@H]2CN2CCCC2)c2cc(-c3ccc4c(c3)OCO4)ccc2n1)C1CCCCC1 [Compound 70],< 1
13,CC(=O)NCCNc1cc(C(=O)N2CCC[C@H]2CN2CCCC2)c2cc(-c3ccc4c(c3)OCO4)ccc2n1 [Compound 71],> 10
14,CCN(CCOC)c1cc(C(=O)N2CCC[C@H]2CN2CCCC2)c2cc(-c3ccc4c(c3)OCO4)ccc2n1 [Compound 72],1 to 10
15,COCCN1CCN(c2cc(C(=O)N3CCC[C@H]3CN3CCCC3)c3cc(-c4ccc5c(c4)OCO5)ccc3n2)CC1 [Compound 73],1 to 10
16,CN(CCO)c1cc(C(=O)N2CCC[C@H]2CN2CCCC2)c2cc(-c3ccc4c(c3)OCO4)ccc2n1 [Compound 74],1 to 10
17,CN(C)[C@@H]1CCN(c2cc(C(=O)N3CCC[C@H]3CN3CCCC3)c3cc(-c4ccc5c(c4)OCO5)ccc3n2)C1 [Compound 75],1 to 10
18,O=C(c1cc(N(CCO)Cc2ccccc2)nc2ccc(-c3ccc4c(c3)OCO4)cc12)N1CCC[C@H]1CN1CCCC1 [Compound 76],< 1

row,Compound,IC50 [µM]
1,CN(Cc1ccc(Cl)c(Cl)c1)c1cc(C(=O)N2CCC[C@H]2CN2CCCC2)c2cc(-c3ccc4c(c3)OCO4)ccc2n1 [Compound 77],< 1
2,CN(c1ccccn1)c1cc(C(=O)N2CCC[C@H]2CN2CCCC2)c2cc(-c3ccc4c(c3)OCO4)ccc2n1 [Compound 78],1 to 10
3,O=C(c1cc(N2CCN(C3CCCC3)CC2)nc2ccc(-c3ccc4c(c3)OCO4)cc12)N1CCC[C@H]1CN1CCCC1 [Compound 79],1 to 10
4,O=C(c1cc(NCc2ccccc2)nc2ccc(-c3ccc4c(c3)OCO4)cc12)N1CCC[C@H]1CO [Compound 80],> 10
5,CCN(CC)C[C@@H]1CCCN1C(=O)c1cc(NCc2ccccc2)nc2ccc(-c3ccc4c(c3)OCO4)cc12 [Compound 81],1 to 10
6,O=C(c1cc(NCc2ccccc2)nc2ccc(-c3ccc4c(c3)OCO4)cc12)N1CCC[C@H]1CN1CCCCC1 [Compound 82],1 to 10
7,O=C(c1cc(NCc2ccccc2)nc2ccc(-c3ccc4c(c3)OCO4)cc12)N1CCC[C@H]1CN1CCOCC1 [Compound 83],1 to 10
8,CC(C)N(C)C[C@@H]1CCCN1C(=O)c1cc(NCc2ccccc2)nc2ccc(-c3ccc4c(c3)OCO4)cc12 [Compound 84],> 10
9,O=C(Nc1ccc2cn[nH]c2c1)c1cc(NCc2ccccc2)nc2ccc(-c3ccc4c(c3)OCO4)cc12 [Compound 85],1 to 10
10,O=C(Nc1ccc2[nH]ncc2c1)c1cc(NCc2ccccc2)nc2ccc(-c3ccc4c(c3)OCO4)cc12 [Compound 86],1 to 10
11,O=C(Nc1ccc2cn[nH]c2c1)c1cc(NCc2ccc(C(F)(F)F)cc2)nc2ccc(-c3ccc4c(c3)OCO4)cc12 [Compound 87],> 10
12,O=C(Nc1ccc2[nH]ncc2c1)c1cc(NCc2ccc(C(F)(F)F)cc2)nc2ccc(-c3ccc4c(c3)OCO4)cc12 [Compound 88],> 10
13,O=C(c1cc(N2CCC[C@H]2CN2CCCC2)nc2ccc(-c3ccc4c(c3)OCO4)cc12)N1CCC[C@H]1CN1CCCC1 [Compound 89],1 to 10
14,O=C(c1cc(N2CCC(O)CC2)nc2ccc(-c3ccc4c(c3)OCO4)cc12)N1CCC[C@H]1CN1CCCC1 [Compound 90],1 to 10
15,O=C(c1cc(N2CCC[C@@H]2CO)nc2ccc(-c3ccc4c(c3)OCO4)cc12)N1CCC[C@H]1CN1CCCC1 [Compound 91],< 1
16,O=C(c1cc(N2CCCc3ccccc32)nc2ccc(-c3ccc4c(c3)OCO4)cc12)N1CCC[C@H]1CN1CCCC1 [Compound 92],< 1
17,Clc1cc(CN2CCC[C@H]2CN2CCCC2)c2cc(-c3ccc4c(c3)OCO4)ccc2n1 [Compound 93],> 10

# — patent publication US20080119515A1, “Heterocyclic Kinase Inhibitors: Methods of Use and Synthesis” (priority 2003, published 2008)
